The subject of this test is GM3. The test is described as follows: GM3 Elisa Assay (B16-FO cells). Format: cell-based. The note with it: 48 h, Table 3, 2 days with compound, read-out: IC50_uM_Mean. As for the experimental part:
B16-FO cells from ATCC (American Tissue Culture Collection) were grown in DMEM media (ATCC) with 10% Fetal Bovine Serum (Hyclone) and Pen/Step/Glutamine (Biowhittaker). 4000 cells per well were plated on collagen coated plates (BD) and allowed to attach for 6 hours in an incubator (37 degrees, 5% CO2). After 6 hours the compounds and controls were added to the wells, the plates mixed and returned to the incubator for 2 days. Day of assay the cells were fixed for 20 minutes with 1% formaldehyde and then washed with Tris Buffered Saline (TBS) 3 times, 150 μl of TBS was left in the wells and 50 μl of goat serum (Invitrogen) was added, the plates mixed and incubated for 1 hour at room temperature. The plates were flicked and the cells incubated with the monoclonal Antibody to GM3 (NeuAc) (Cosmo) for 45 minutes as room temperature. The plates were then washed 3 times with TBS, leaving 150 μl of TBS in the wells and Peroxidase AffinPure F (ab′) 2 frag Gt Anti-mouse IgM, μ Chain Specific (Jackson Immno Research) was added in 50 μl, the plates mixed and incubated for 45 minutes at room temperature. The plates were washed 3 times with TBS, flicked and blotted and 100 μl of Quantablu (Pierce) was added to the wells and incubated for 1 hour then read on a Fluorometer at Ex 325 and Em 420. The data was then analyzed using standard programs.

Consider `O=C(CCCc1nc(C2CC2)no1)N[C@H](CN1CCCC1)[C@H](O)c1ccc2c(c1)OCCO2` [Compound 648], for which the IC50 lay within 1000 to 3000 nM.

As for `Cc1noc(CCCCC(=O)N[C@H](CN2CCCC2)[C@H](O)c2ccc3c(c2)OCCO3)n1` [Compound 649], the IC50 fell in the range of 3000 to 10000 nM.

Source of the values: patent US9481671B2, “Glucosylceramide synthase inhibition for the treatment of collapsing glomerulopathy and other glomerular disease” (Genzyme Corporation, priority 2008, dated 2016).
